Ends that are not written are not given here.
Key:
[1] = biological target: T1, PDK1 phosphorylation of GST-S6K1-T2[Thr412Glu] (Homo sapiens, UniProt O15530); experiment: PDK1 phosphorylation of substrate S6K1 in vitro; assay type: biochemical; conditions: compound 100 and 200 μM
T1 construct: GST (N); made in house; host or cells: HEK293
Method: FIG. 4—Small compounds designed to bind the HM/PIF-pocket of PDK1 can block the PDK1-dependent phosphorylation and activation of substrates that require docking to the HM/PIF-pocket of PDK1. (A) Effect of compound 1 (100 and 200 μM) on PDK1 phosphorylation of its substrate S6K1. The phosphorylation reaction was performed in vitro with [γ^32P]ATP and then separated on SDS-PAGE followed by exposure to phosphorimager. The radioactive band corresponding to phosphorylated GST-56K1-T2[Thr412Glu] (S6K[412E]) is indicated. (B) PDK1 or PDK1[Val127Leu] (PDK1[V127L]) were pre-incubated with GST-[…]N-SGK1 [Ser422Asp] […] (C) The activity of S6K was measured in vitro after glutathione sepharose purification; aliquots of purified proteins were separated on SDS-PAGE and the level of activation loop phosphorylation was visualized by immunoblotting using phospho-specific antibodies that recognize the phosphorylated activation loop, followed by stripping of the membranes and re-probing with anti-GST to verify the presence of equal amounts of protein. (D) Cells overexpressing GST-56K1-T2[Thr412Glu] were treated as in (C) but S6K activity was measured in vitro after immunoprecipitation of the GST-fusion protein with anti-GST antibodies; the level of S6K expression was analysed by western-blotting of crude extracts. […]

[2] = biological target: T2, PDK1 catalytic domain (50-360) (Homo sapiens, UniProt O15530); experiment: TNP-ATP/PDK1 fluorescence, conformation of the ATP binding site
T2 construct: the catalytic domain of PDK1 (50-359) produced in SF9 insect cells; His-tag (N, cleaved yes); made in house; host or cells: SF9 insect cells (baculovirus)
T2 sequence (O15530 50-359): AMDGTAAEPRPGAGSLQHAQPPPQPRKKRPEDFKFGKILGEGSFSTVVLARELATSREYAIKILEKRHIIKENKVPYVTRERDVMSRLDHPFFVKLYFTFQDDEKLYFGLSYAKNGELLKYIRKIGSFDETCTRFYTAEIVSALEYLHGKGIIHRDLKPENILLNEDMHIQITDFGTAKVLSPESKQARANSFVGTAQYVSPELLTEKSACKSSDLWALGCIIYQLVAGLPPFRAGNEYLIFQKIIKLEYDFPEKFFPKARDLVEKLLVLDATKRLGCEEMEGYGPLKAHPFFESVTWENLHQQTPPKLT
Method: FIG. 5—Modulation of PDK1 conformation by phosphopeptides and small compounds. Effect of P-HM-polypeptides and compound 1 on the emission fluorescence of trinitrophenyl-ATP (TNP-ATP)/PDK1. The fluorescence emission spectra from TNP-ATP were recorded in the presence or absence of P-HM-polypeptides, PIFtide and compound 1. (A) Effect of P-HM-RSK (65 μM) on the fluorescence by TNP-ATP. (B) Effect of compound 1 on the fluorescence emission from TNP-ATP. Fluorescence intensities are expressed as %. […] The effect of P-HM-PKB was identical to that by P-HM-RSK.
The activation of PDK1 by P-HM-polypeptides and small compounds is due to a change in the conformation of the enzyme. We probed the conformation of the ATP binding site in PDK1 by scanning the steady-state fluorescence of TNP-ATP/PDK1, in the presence or absence of P-HM-polypeptides, PIFtide, or small molecular weight compounds. Data were obtained in a Varian Cary Eclipse spectrofluorometer (excitation γ=479 nm; emission scanning, γ=500-600 nm; excitation slit=10 nm; emission slit=10 nm) at a rate of 200 nm/min, with 150 datapoints/100 nm scanning and 0.3 s averaging time. […] Non-phosphorylated HM-polypeptides increased the fluorescence intensity of TNP-ATP in the absence of PDK1 and were not used in the study. […]

T1 sequence (O15530 whole entry, change not shown): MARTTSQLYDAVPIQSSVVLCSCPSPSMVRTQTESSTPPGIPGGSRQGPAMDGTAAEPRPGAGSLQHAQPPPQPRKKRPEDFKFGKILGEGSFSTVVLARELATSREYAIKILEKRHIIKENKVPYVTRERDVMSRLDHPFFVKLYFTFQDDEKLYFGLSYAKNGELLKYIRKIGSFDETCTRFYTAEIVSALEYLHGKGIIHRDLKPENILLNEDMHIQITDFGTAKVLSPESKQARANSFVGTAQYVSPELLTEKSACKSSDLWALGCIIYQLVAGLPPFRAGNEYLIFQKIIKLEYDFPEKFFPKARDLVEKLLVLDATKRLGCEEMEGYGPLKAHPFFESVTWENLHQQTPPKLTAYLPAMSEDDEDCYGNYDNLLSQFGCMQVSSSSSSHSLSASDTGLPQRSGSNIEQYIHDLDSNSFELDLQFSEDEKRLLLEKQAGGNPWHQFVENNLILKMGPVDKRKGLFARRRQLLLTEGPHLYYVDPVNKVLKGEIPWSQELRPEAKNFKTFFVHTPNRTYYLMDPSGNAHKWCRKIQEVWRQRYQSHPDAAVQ

Row | PDK1-catalyzed phosphorylation of S6K1 (in words) [1] | effect on TNP-ATP/PDK1 fluorescence (in words) ([2]; 40 μM TNP-ATP, 15 μM PDK1) | Emax ([2]; at 10 times the value of its Kd for PDK1, read-out: maximal effect on TNP-ATP fluorescence intensity) | Compound
1 | decreased |  |  | O=C(O)CSC(CC(=O)c1ccc(Cl)cc1)c1ccccc1 (stereo not drawn) [Compound 1]
2 |  | decreased the intensity | 65% | REPRILSEEEQEMFRDFDYIADWC [PIFtide, reference compound]
